The source of these data is patent publication US9926281B2 (priority 2014, dated 2018).

Assay [1] has as its target human ADAMTS-5 (Homo sapiens (Human), UniProt Q9UNA0). The conditions noted are these: read-out: hADAMTS-5 potency IC50.
Description: Finally, the fluorescence is read on the Envision (Perkin Elmer) after an incubation of 90 min at 37° C.
Assay [2] concerns the target human TACE (Homo sapiens (Human), UniProt P78536). The conditions noted are these: read-out: TACE potency IC50.

Sequence of human ADAMTS-5 (Q9UNA0 262-930): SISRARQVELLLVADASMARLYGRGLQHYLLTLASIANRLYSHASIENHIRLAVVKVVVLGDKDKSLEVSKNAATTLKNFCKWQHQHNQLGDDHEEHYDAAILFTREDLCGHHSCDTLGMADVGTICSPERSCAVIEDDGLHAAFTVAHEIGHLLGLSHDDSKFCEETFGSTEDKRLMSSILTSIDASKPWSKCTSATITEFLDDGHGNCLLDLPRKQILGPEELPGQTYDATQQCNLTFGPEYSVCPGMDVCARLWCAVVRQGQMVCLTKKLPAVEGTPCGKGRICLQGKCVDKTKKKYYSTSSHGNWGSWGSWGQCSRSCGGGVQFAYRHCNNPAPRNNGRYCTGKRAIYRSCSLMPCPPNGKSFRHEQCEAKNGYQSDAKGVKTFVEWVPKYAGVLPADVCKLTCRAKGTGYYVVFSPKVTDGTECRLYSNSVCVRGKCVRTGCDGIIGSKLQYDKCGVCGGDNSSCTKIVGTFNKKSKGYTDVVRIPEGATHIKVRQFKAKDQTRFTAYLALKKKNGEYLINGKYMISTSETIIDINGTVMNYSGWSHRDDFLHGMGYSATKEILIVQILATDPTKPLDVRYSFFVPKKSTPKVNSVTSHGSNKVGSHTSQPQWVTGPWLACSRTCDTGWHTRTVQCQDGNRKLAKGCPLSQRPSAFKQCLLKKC
Sequence of human TACE (P78536 whole entry, looked up, change not shown): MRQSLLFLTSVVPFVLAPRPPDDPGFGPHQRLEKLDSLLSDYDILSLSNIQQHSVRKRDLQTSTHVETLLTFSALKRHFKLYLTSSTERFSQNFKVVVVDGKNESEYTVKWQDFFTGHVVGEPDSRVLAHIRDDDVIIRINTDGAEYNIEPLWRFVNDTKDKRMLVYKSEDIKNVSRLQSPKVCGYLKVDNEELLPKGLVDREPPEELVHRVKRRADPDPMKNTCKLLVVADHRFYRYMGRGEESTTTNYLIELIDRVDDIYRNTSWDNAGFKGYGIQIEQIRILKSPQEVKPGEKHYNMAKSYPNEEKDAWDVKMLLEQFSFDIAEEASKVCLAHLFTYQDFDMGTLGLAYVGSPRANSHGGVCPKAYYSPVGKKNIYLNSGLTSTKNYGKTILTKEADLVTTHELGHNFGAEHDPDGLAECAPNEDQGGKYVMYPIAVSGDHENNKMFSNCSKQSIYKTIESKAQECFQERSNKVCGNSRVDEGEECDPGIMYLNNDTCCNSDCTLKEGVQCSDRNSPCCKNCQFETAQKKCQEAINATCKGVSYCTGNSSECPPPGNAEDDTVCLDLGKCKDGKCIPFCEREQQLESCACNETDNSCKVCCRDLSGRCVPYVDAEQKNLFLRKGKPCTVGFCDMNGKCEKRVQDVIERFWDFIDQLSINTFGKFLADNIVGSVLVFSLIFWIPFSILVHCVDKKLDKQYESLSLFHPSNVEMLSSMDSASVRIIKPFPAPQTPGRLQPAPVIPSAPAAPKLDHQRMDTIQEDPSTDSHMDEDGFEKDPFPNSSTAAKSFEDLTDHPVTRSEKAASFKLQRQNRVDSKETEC

Turning to `CC(CC1(CCN)NC(=O)NC1=O)C(=O)N1CCN(c2ccc(F)c(F)c2)CC1` (stereo not drawn) [Cpd 241, 5-(2-aminoethyl)-5-[3-[4-(3,4-difluorophenyl)piperazin-1-yl]-2-methyl-3-oxo-propyl]imidazolidine-2,4-dione], the results for the IC50 in assay [1] and in assay [2] were 232 nM and greater than 12000 nM, respectively. With `C[C@H]1CN(C(=O)C(CO)CC2(C)NC(=O)NC2=O)CCN1c1cccc(F)c1` (stereo partly drawn) [Cpd 268, 5-[3-[(3S)-4-(3-fluorophenyl)-3-methyl-piperazin-1-yl]-2-(hydroxymethyl)-3-oxo-propyl]-5-methyl-imidazolidine-2,4-dione], the figures for the IC50 in assay [1] and in assay [2] were 62 nM and greater than 4000 nM, respectively. Consider `C[C@H]1CN(C(=O)CCC2(C3CC3)NC(=O)NC2=O)CCN1c1cccnn1` (stereo partly drawn) [Cpd 302, 5-cyclopropyl-5-[3-(3S)-3-methyl-4-pyridazin-3-yl-piperazin-1-yl-3-oxo-propyl]imidazolidine-2,4-dione], for which the IC50 was 776 nM in assay [1] and greater than 20000 nM in assay [2]. For `C[C@H]1CN(C(=O)CCC2(C3CC3)NC(=O)NC2=O)CCN1c1cccc(-c2cnccn2)c1` (stereo partly drawn) [Cpd 372, S-Cyclopropyl-5-{3-[(S)-3-methyl-4-(3-pyrazin-2-yl-phenyl)-piperazin-1-yl]-3-oxo-propyl}-imidazolidine-2,4-dione], in that order: 2390 nM and greater than 20000 nM. For `C[C@@H](C[C@@]1(C2CC2)NC(=O)NC1=O)C(=O)N1CCN(c2cc(F)cc(-c3cn[nH]c3)c2)[C@@H](C)C1` [Cpd 379, 5-cyclopropyl-5-[3-[(3S)-4-[3-fluoro-5-(1H-pyrazol-4-yl)phenyl]-3-methyl-piperazin-1-yl]-2-methyl-3-oxo-propyl]imidazolidine-2,4-dione], in that order: 18 nM and 1490 nM. Take `CC(CC1(C2CN(C)C2)NC(=O)NC1=O)C(=O)N1CCN(c2ccc(F)c(F)c2)[C@@H](C)C1` (stereo partly drawn) [Cpd 399, 5-[3-[(3S)-4-(3,4-difluorophenyl)-3-methy-piperazin-1-yl]-2-methyl-3-oxo-propy]-5-(1-methylazetidin-3-yl)imidazolidine-2,4-dione]: in assay [1], the IC50 amounted to 163 nM. For `Cc1cc(N2CCN(C(=O)CCC3(CC(=O)NCCO)NC(=O)NC3=O)CC2)ccc1Cl` (stereo not drawn) [Cpd 402, 2-[4-[3-[4-(4-chloro-3-methyl-phenyl)piperazin-1-yl]-3-oxo-propyl]-2,5-dioxo-imidazolidin-4-yl]-N-(2-hydroxyethyl)acetamide], the IC50 in assay [1] turned out to be 732 nM. In the case of `CN(C)CCC1(CCC(=O)N2CCN(c3cccc(Cl)c3)CC2)NC(=O)NC1=O` (stereo not drawn) [compound 44, 5-[3-[4-(3-chlorophenyl)piperazin-1-yl]-3-oxo-propyl]-5-(2-dimethylaminoethyl)imidazolidine-2,4-dione], the IC50 in assay [2] is greater than 20000 nM. For the molecule `CNc1ccccc1N1CCN(C(=O)CCC2(C3CC3)NC(=O)NC2=O)CC1` (stereo not drawn) [compound 185, 5-cyclopropyl-5-[3-[4-[2-(methylamino)phenyl]piperazin-1-yl]-3-oxo-propyl]imidazolidine-2,4-dione], the IC50 in assay [1] was greater than 4000 nM. On to `Cc1cc(Cl)c(F)cc1N1CCN(C(=O)CCC2(C)NC(=O)NC2=O)C[C@@H]1C` (stereo partly drawn) [compound 202, 5-[3-[(3S)-4-(4-chloro-5-fluoro-2-methyl-phenyl)-3-methyl-piperazin-1-yl]-3-oxo-propyl]-5-methyl-imidazolidine-2,4-dione], for which the IC50 in assay [1] stood at 724 nM. Take `COCCOCC1(CC(C)C(=O)N2CCN(c3cc(Cl)cc(Cl)c3)[C@@H](C)C2)NC(=O)NC1=O` (stereo partly drawn) [compound 221, 5-[3-[(3S)-4-(3,5-dichlorophenyl)-3-methyl-piperazin-1-yl]-2-methyl-3-oxo-propyl]-5-(2-methoxyethoxymethyl)imidazolidine-2,4-dione]: the IC50 in assay [2] came to 3200 nM. In the case of `Cc1cc(CC(CC2(C)NC(=O)NC2=O)C(=O)N2CCN(c3cc(Cl)cc(Cl)c3)CC2)n(C)n1` (stereo not drawn) [compound 238, 5-[3-[4-(3,5-dichlorophenyl)piperazin-1-yl]-2-[(2,5-dimethylpyrazol-3-yl)methyl]-3-oxo-propyl]-5-methyl-imidazolidine-2,4-dione], the IC50 is 141 nM in assay [1] and 3160 nM in assay [2].

As for `CC(CC1(c2ccccn2)NC(=O)NC1=O)C(=O)N1CCN(c2ccc(F)c(Cl)c2)[C@@H](C)C1` (stereo partly drawn) [compound 245, 5-[3-[(3S)-4-(3-chloro-4-fluoro-phenyl)-3-methyl-piperazin-1-yl]-2-methyl-3-oxo-propyl]-5-(2-pyridyl)imidazolidine-2,4-dione], in assay [1], the IC50 is 17 nM. As for `Cc1c(Cl)cc(F)cc1N1CCN(C(=O)CCC2(C)NC(=O)NC2=O)CC1` (stereo not drawn) [compound 293, 5-[3-[4-(3-chloro-5-fluoro-2-methyl-phenyl)piperazin-1-yl]-3-oxo-propyl]-5-methyl-imidazolidine-2,4-dione], the IC50 in assay [1] came to 294 nM. As to `C[C@H]1CN(C(=O)CCC2(C3CC3)NC(=O)NC2=O)CCN1c1ccc2ncsc2c1` (stereo partly drawn) [compound 305, 5-[3-[(3S)-4-(1,3-benzothiazol-6-yl)-3-methyl-piperazin-1-yl]-3-oxo-propyl]-5-cyclopropyl-imidazolidine-2,4-dione], the IC50 in assay [2] is greater than 20000 nM. Turning to `Cc1cc(N2CCN(C(=O)CC[C@@]3(C)NC(=O)NC3=O)CC2)cc(C)c1Cl` [compound 401, (5R)-5-[3-[4-(4-chloro-3,5-dimethyl-phenyl)piperazin-1-yl]-3-oxo-propyl]-5-methyl-imidazolidine-2,4-dione], in assay [1], the IC50 came out at 1120 nM.

On to `C[C@@H]1CN(C(=O)CC[C@@]2(C3CC3)NC(=O)NC2=O)CCN1c1cc(F)cc(F)c1` [compound 403, (5S)-5-cyclopropyl-5-[3-[(3R)-4-(3,5-difluorophenyl)-3-methyl-piperazin-1-yl]-3-oxo-propyl]imidazolidine-2,4-dione], for which the IC50 in assay [1] was 168 nM. The same measure, in the same setting: the figure for `COCCOCC1(CC(C)C(=O)N2CCN(c3cc(Cl)cc(Cl)c3)[C@@H](C)C2)NC(=O)NC1=O` (stereo partly drawn) [compound 426, 5-(3-((S)-4-(3,5-dichlorophenyl)-3-methylpiperazin-1-yl)-2-methyl-3-oxopropyl)-5-((2-methoxyethoxy)methyl)imidazolidine-2,4-dione] is 110 nM; for `CC(CC1(c2ccccn2)NC(=O)NC1=O)C(=O)N1CCN(c2ccc(F)c(Cl)c2)[C@@H](C)C1` (stereo partly drawn) [compound 437, 5-(3-((S)-4-(3-chloro-4-fluorophenyl)-3-methylpiperazin-1-yl)-2-methyl-3-oxopropyl)-5-(pyridin-2-yl)imidazolidine-2,4-dione] it is 17 nM; for `Cc1cccc(C2(CCC(=O)N3CCN(c4ccc(Cl)c(Cl)c4)[C@@H](C)C3)NC(=O)NC2=O)n1` (stereo partly drawn) [compound 452, 5-[3-[(3S)-4-(3,4-dichlorophenyl)-3-methyl-piperazin-1-yl]-3-oxo-propyl]-5-(6-methyl-2-pyridyl)imidazolidine-2,4-dione] it is 23 nM. On the same count and under the same terms, for `C[C@H]1CN(C(=O)CCC2(c3ccccn3)NC(=O)NC2=O)CCN1c1ccc(F)c(Cl)c1` (stereo partly drawn) [compound 457, 5-[3-[(3S)-4-(3-chloro-4-fluoro-phenyl)-3-methyl-piperazin-1-yl]-3-oxo-propyl]-5-(2-pyridyl)imidazolidine-2,4-dione] the value was 47 nM.

A word on the IC50: it is the concentration that gives 50% inhibition.
